Consider three compounds from paper PMC3713518, “Structure-based discovery of fiber-binding compounds that reduce the cytotoxicity of amyloid beta” (eLife, 2013).

A word on the Kd: it is the constant that tells how readily two partners part at equilibrium.

One test has as its target T1, Aβ1–42 fibers (Homo sapiens, UniProt P05067).
T1 construct: gene APP; residues 1-42 of Abeta from APP polyprotein; E. coli His-(NANP)19-TEV fusion, tag cut by TEV; fibrils grown 2 months
The test is described as follows: 1H NMR of compound with fibers. To be noted: PBS pH 7.4, 283 K; binding to full-length Abeta fibers. An excerpt: 1H NMR of compound with fibers on Aβ1–42 fibers

The target in the next test is T2, KLVFFA (Aβ16–21) fibers (Homo sapiens, UniProt P05067).
T2 construct: gene APP; fibrils grown 3 months; segment of Abeta cut from APP polyprotein
The test is described as follows: 1H NMR titration of compound with fibers. Type of test: binding.

T1 sequence (P05067 672-713): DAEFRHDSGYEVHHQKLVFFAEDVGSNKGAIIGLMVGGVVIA

With `O=C1OC2(c3ccccc31)c1cc(Br)c(O)c(Br)c1Oc1c2cc(Br)c(O)c1Br` [BAF1], the “Binding to Aβ fiber / NMR peak reduction (%)” value at Aβ1–42 fibers is on record as 8%. The Kd at KLVFFA (Aβ16–21) fibers came to 12 ± 7 µM.

As to `Cc1ccc(O)c(N=Nc2c(O)cc(S(=O)(=O)O)c3ccccc23)c1` [BAF8], the “Binding to Aβ fiber / NMR peak reduction (%)” value at Aβ1–42 fibers came to 13%. The Kd on KLVFFA (Aβ16–21) fibers stood at 24 ± 5 µM.

For the compound `O=S(=O)(O)c1cc(S(=O)(=O)O)c2c(N=Nc3ccccc3)c(O)ccc2c1` [orange G], the “Binding to Aβ fiber / NMR peak reduction (%)” value on Aβ1–42 fibers came out at 6%. This compound registered a Kd at KLVFFA (Aβ16–21) fibers of 43 ± 21 µM.
